Entries after “also recorded” stand apart in the source; their conditions may differ.
Columns and labels:
Mmachc^del2 mouse line = experiment: Genotype distribution at birth (P0-2), Mmachc^del2 litters; type: in vivo; settings: mice at birth; prenatal treatment
Method: (§1) Genotyping and breeding scheme: Tail biopsies were performed routinely at 10-15 days of life or in rare cases in the first day of life and DNA was extracted using the Qiagen DNEASY® Spin Kit or the MYTAQ® Extract-PCR Kit. Mmachc genotype was determined by a fluorescent PCR method described previously^22 or by Droplet Digital PCR (ddPCR) Mutation Detection Assay (Bio-Rad). ddPCR genotyping was performed by mixing 2 ul of 1:10 diluted DNA, 1.1 ul probe-primer mix, and 7.9 ul water. The primer-probe mix contained the wild-type/mutant primer and fluorescent FAM and HEX probes targeting the mutant and wild-type alleles, respectively. Sample droplets were generated by the QX200 Droplet Digital PCR system, PCR amplified in a thermocycler, and DNA quantified by droplet fluorescence. Mmachc homozygous mutant mice and their heterozygote or wild type control littermates were generated from heterozygous parental crosses unless otherwise noted. In order to eliminate the Pdeb(rdl) mutation present in the FVB/N genetic background which causes retinal degeneration, Mmachc carrier mice were crossed to C57BL/6J mice. Subsequent generations of Mmachc carriers were genotyped for the Pdeb(rdl) mutation using a published PCR method (Gimenez and Montouliu Lab Anim 35, 153-6 (2001)), and mice homozygous for the functional Pdeb(rdl) allele were selected for further breeding. Mice were fed regular or high fat chow and weaned at P21-28.
(§2) Survival and phenotype in Mmachc mice: Mendelian ratios at birth, survival, and relative weight: To determine survival, litters were assessed daily after birth and dead pups were noted, removed, and genotyped when tissue was available. Age at time of death was recorded. Weights were measured monthly and the weight of mutants relative to average weight of control littermates was calculated.
(§3) Cobalamin Treatment: OHCbl and MeCbl were obtained from College Pharmacy (Colorado Spring, CO) or prepared at 25 mg/ml concentration and subsequently diluted with 0.9% saline solution to a working solution of 5 mg/ml. OHCbl or MeCbl was delivered by intraperitoneal injections for pups ages P0-P14 and subcutaneous injections for mice post weaning. For in utero treatment studies, pregnant dams were treated with 1 mg/week (100 mg/kg) via subcutaneous injections throughout pregnancy and weaning. For chronic therapy 50 μg/kg dosing was used.
(§4) Statistics: Graphpad Prism Software was used for statistical analysis. All data are presented as mean±SD and significance is indicated as follows: p<0.05(*), p<0.01(**), p<0.001 (***), and p<0.0001(****). Kaplan-Meier survival curve significance was determined using the Log-Rank Mantel-Cox test, genotype distribution significance was assessed using the chi-square test, and all other statistics were calculated using the unpaired t-test.

Mmachc^de13/de13 mice [1] = experiment: Survival of treated Mmachc^de13/de13 mutant mice; type: in vivo, mouse; settings: for median survival: Mmachc^de13/de13 mutants, pregnant dams treated weekly (1 mg) throughout gestation and weaning (prenatal treatment); for mutants alive at 100 days: prenatal treatment
Method: as §2, §3
(§5) AAV Vector Design, Production, and Delivery: Two adeno associated viral vectors were designed: AAVrh10-Mmachc, containing the murine Mmachc coding sequence packaged into a rh10 serotype capsid, and AAV9-coMMACHC, containing a codon optimized human MMACHC coding sequence packaged into an AAV9 serotype capsid. AAVs were produced as described previously. AAV viral vectors were delivered via intrahepatic injection at a dose of 1×10^11 GC per pup in the neonatal period (P0-2). ddPCR was conducted using a CMV/CBA probe spanning the promoter/enhancer, reference albumin Dissection of Pregnant Dams: Pregnant dams were either untreated, treated with OHCbl, MeCbl or the combination (1 mg per week) during pregnancy as described and sacrificed at E18.5. Embryos were photographed, tails were collected for genotyping, and the remaining tissue was collected and flash frozen. Embryo weights were measured and the weight of mutants relative to average weight of control littermates was calculated. Crown to rump length of each embryo was also determined using ImageJ software.
as §4

Mmachc^de12/de12 mice [2] = experiment: Survival of treated Mmachc^de12/de12 mutant mice; type: in vivo, mouse; settings: prenatal treatment; for median survival: Mmachc^de12/de12 mutants, OHCbl 1 mg, MeCbl 1 mg or 0.5 mg each weekly
Method: as §2, §3, §4

Mmachc^de12/de12 mice [3] = experiment: Postnatal weight, Mmachc^de12/de12; type: in vivo, mouse; settings: prenatal treatment
Method: as §2

Mmachc^de13/de13 mice [4] = experiment: Pigmentation / clinical appearance, Mmachc^de13/de13; type: in vivo, mouse
Mmachc^de12/de12 embryos = experiment: E18.5 embryo weight and pathology, Mmachc^de12/de12; type: in vivo, mouse; settings: prenatal treatment
Method: as §5

Mmachc^de12/de12 mice [5] = experiment: Pigmentation / clinical appearance, Mmachc^de12/de12; type: in vivo, mouse; settings: prenatal treatment
Mmachc^de13/de13 mice [6] = experiment: Postnatal weight relative to control littermates, Mmachc^de13/de13; type: in vivo, mouse
Method: as §2

Mmachc^de13/de13 mice [7] = experiment: Plasma metabolite measurements (GC-MS), Mmachc^de13/de13; type: in vivo, mouse; settings: for plasma cystathionine: P0-P30; for plasma methylmalonic acid: P0-P30 (two weeks)
Method: Metabolite measurements: Blood samples were collected in heparinized capillary tubes and centrifuged at 2000 rpm for 10 min at 4C. Plasma was diluted 1:40 in water for methylmalonic acid and methylcitrate measurements and undiluted plasma was used for homocysteine and cystathionine measurements. Plasma concentrations were determined by gas chromatography-mass spectrometry (GC-MS).

Mmachc^del3 mouse line [8] = experiment: Genotype distribution at birth (P0-2), Mmachc^del3 litters; type: in vivo; settings: mice at birth; prenatal treatment
Method: as §1, §2, §3, §4

Mmachc^del3 mouse line [9] = experiment: Genotype distribution at E18.5, Mmachc^del3 litters; type: in vivo; settings: mice at E18.5; prenatal treatment
Method: as §5, §4

Mmachc^de13/de13 embryos = experiment: E18.5 embryo growth parameters, Mmachc^de13/de13; type: in vivo, mouse
Method: as §5

Mmachc^de13/de13 mice [10] = experiment: Retinal histology and electroretinography, Mmachc^de13/de13; type: in vivo, mouse
Excerpt: The severe neonatal lethality of this model in combination with the fact that the mouse retina develops until ˜P21 made it challenging to study retinal pathology in untreated mice.

cblC patients = experiment: Natural history cohort of cblC patients (NCT00078078); type: in vivo, human
Method: Extensive data was collected on a large natural history cohort of 61 patients studied every 2-3 years over 15 yrs to evaluate the impact of different approaches to clinical management/cobalamin therapy on disease outcomes (ClinicalTrial.gov ID: NCT00078078). […] Six patients (ages 2.2-3.8 years), who received higher doses of hydroxocobalamin (5-20 mg/day or 0.3-1.4 mg/kg/d) starting between 6 mo-1 yr, presented with variable macular degeneration and improved average FSIQ and ABC scores in the normal range (FSIQ 91.6±5.3; ABC 88.2±10.7), compared to our historic scores in young children <10 y of age on <0.3 mg/kg/day (FSIQ 70.69±19.11, ABC 79.83±17.42).

[11] = six patients ages 2.2-3.8 years, 5-20 mg/day or 0.3-1.4 mg/kg/d starting between 6 mo-1 yr
[12] = young children <10 y of age on <0.3 mg/kg/day
[13] = 7-13 months, both prenatal OHCbl and prenatal OHCbl+weekly groups
[14] = 7-13 months, prenatal+postnatal OHCbl

SMILES: C/C1=C2/[N-][C@H]([C@H](CC(N)=O)[C@@]2(C)CCC(=O)NC[C@H](C)OP(=O)([O-])O[C@H]2[C@@H](O)[C@@H](n3cnc4cc(C)c(C)cc43)O[C@@H]2CO)[C@]2(C)N=C(/C(C)=C3N=C(/C=C4N=C1[C@@H](CCC(N)=O)C\4(C)C)[C@@H](CCC(N)=O)[C@]\3(C)CC(N)=O)[C@@H](CCC(N)=O)[C@]2(C)CC(N)=O.[CH3-].[Co+3] [MeCbl, methylcobalamin]
- genotype distribution +/+ (%) (Mmachc^del2 mouse line): 18%
- genotype distribution +/+ n (Mmachc^del2 mouse line): 14
- genotype distribution +/− (%) (Mmachc^del2 mouse line): 53%
- genotype distribution +/− n (Mmachc^del2 mouse line): 41
- genotype distribution −/− (%) (Mmachc^del2 mouse line): 29%
- genotype distribution −/− n (Mmachc^del2 mouse line): 22
- median survival (Mmachc^de13/de13 mice [1]): 144 days
- mutants alive at 100 days (Mmachc^de13/de13 mice [1]): 100%
- median survival (Mmachc^de12/de12 mice [2]): 78 days
- mutants survived beyond 30 days (Mmachc^de12/de12 mice [2]): 100%
- growth at 1 month (Mmachc^de12/de12 mice [3]): appeared growth impaired but this was not significant at 1 month
- pigmentation of fur, ears and tails (Mmachc^de13/de13 mice [4]; prenatal treatment): minimal pigmentation differences
- weight of E18.5 embryos normalized to control values (Mmachc^de12/de12 embryos; weekly subcutaneous injection of dams, untreated 76.4%): 89.4 % of controls
- pathology at E18.5 (Mmachc^de12/de12 embryos; H&E): ameliorated the pathology in the lungs, liver and brown fat
- pigmentation of the ears (Mmachc^de12/de12 mice [5]): improvement in pigmentation of the ears
- size relative to littermates at 3 months (Mmachc^de13/de13 mice [6]; prenatal treatment): 48%
- plasma cystathionine (Mmachc^de13/de13 mice [7]; prenatal treatment): reduced cystathionine to control levels; also recorded: decreased to control levels
- homocysteine levels (Mmachc^de13/de13 mice [7]; prenatal treatment): did not improve
- genotype distribution +/+ (%) (Mmachc^del3 mouse line [8]): 31%
- genotype distribution +/+ n (Mmachc^del3 mouse line [8]): 38
- genotype distribution +/− (%) (Mmachc^del3 mouse line [8]): 63%
- genotype distribution +/− n (Mmachc^del3 mouse line [8]): 76
- genotype distribution −/− (%) (Mmachc^del3 mouse line [8]): 6%
- genotype distribution −/− n (Mmachc^del3 mouse line [8]): 7

SMILES: C/C1=C2/[N-][C@H]([C@H](CC(N)=O)[C@@]2(C)CCC(=O)NC[C@@H](C)OP(=O)([O-])O[C@H]2[C@@H](O)[C@@H](n3cnc4cc(C)c(C)cc43)O[C@@H]2CO)[C@]2(C)N=C(/C(C)=C3N=C(/C=C4N=C1[C@@H](CCC(N)=O)C\4(C)C)[C@@H](CCC(N)=O)[C@]\3(C)CC(N)=O)[C@@H](CCC(N)=O)[C@]2(C)CC(N)=O.[Co+3].[OH-] [OHCbl, hydroxocobalamin]
- genotype distribution +/+ (%) (Mmachc^del2 mouse line): 29%
- genotype distribution +/+ n (Mmachc^del2 mouse line): 76
- genotype distribution +/− (%) (Mmachc^del2 mouse line): 66%
- genotype distribution +/− n (Mmachc^del2 mouse line): 171
- genotype distribution −/− (%) (Mmachc^del2 mouse line): 5%
- genotype distribution −/− n (Mmachc^del2 mouse line): 13
- median survival (Mmachc^de13/de13 mice [1]): 109 days
- mutants alive at 100 days (Mmachc^de13/de13 mice [1]): 50%
- longest surviving (Mmachc^de13/de13 mice [1]; prenatal+weekly OHCbl): > 1 year
- median survival (Mmachc^de12/de12 mice [2]): 25 days
- genotype distribution +/+ (%) (Mmachc^del3 mouse line [9]): (23) %
- genotype distribution +/+ n (Mmachc^del3 mouse line [9]): 14
- genotype distribution +/− (%) (Mmachc^del3 mouse line [9]): (46) %
- genotype distribution +/− n (Mmachc^del3 mouse line [9]): 28
- genotype distribution −/− (%) (Mmachc^del3 mouse line [9]): (31) %
- genotype distribution −/− n (Mmachc^del3 mouse line [9]): 19
- pigmentation of ears and tail (Mmachc^de13/de13 mice [4]; long term (prenatal+weekly) treatment): decreased hypopigmentation
- embryo weight normalized to control littermates (Mmachc^de13/de13 embryos; de13/de13, prenatal treatment, n=11): 0.8204±0.03641
- anterioposterior abdominal dimension (APD) (Mmachc^de13/de13 embryos; prenatal treatment): did not improved
- crown rump length (IUGR) (Mmachc^de13/de13 embryos; prenatal treatment): did not rescue the IUGR
- retinal histology (Mmachc^de13/de13 mice [10]; 6-9 months of age): within normal limits
- electroretinography (ERG) (Mmachc^de13/de13 mice [10]; prenatal OHCbl/AAV9 at 9 months, OHCbl at 6 months): diminished scotopic B waves
- relative weight of mutant mice at two weeks (Mmachc^de13/de13 mice [6]; prenatal OHCbl): improved the weight vs untreated
- relative weight of mutant mice at two weeks (Mmachc^de13/de13 mice [6]; prenatal OHCbl+weekly): improved the weight vs untreated
- adverse events (cblC patients; adults and children on 25 mg/day monitored 2-8 years): no significant adverse events
- ABC score (cblC patients; single patient, 5 mg): 79
- eye exam (cblC patients; single patient, 5 mg): normal
- average ABC score (cblC patients; [11]): 88.2±10.7
- average FSIQ score (cblC patients; [11]): 91.6±5.3
- ABC score (historic) (cblC patients; [12]): 79.83±17.42
- FSIQ score (historic) (cblC patients; [12]): 70.69±19.11
- homocysteine (Mmachc^de13/de13 mice [7]; [13]): remained elevated vs controls but was lower
- methylmalonic acid (Mmachc^de13/de13 mice [7]; [13]): remained elevated vs controls and untreated mutants
- methylmalonic acid levels in the blood [MMA] (Mmachc^de13/de13 mice [7]; [14]): > 1500 µM
- total homocysteine levels (tHCYS) (Mmachc^de13/de13 mice [7]; [14]): 31 µM
- plasma methylmalonic acid (Mmachc^de13/de13 mice [7]; prenatal treatment only): no decrease
- plasma methylmalonic acid (Mmachc^de13/de13 mice [7]; weekly (chronic) OHCbl): decreased
- plasma cystathionine (Mmachc^de13/de13 mice [7]; prenatal treatment): elevated compared to untreated mutants; also recorded: increased
- homocysteine levels (Mmachc^de13/de13 mice [7]; prenatal and weekly treatment): did not improve
- homocysteine levels (Mmachc^de13/de13 mice [7]; prenatal treatment): did not improve
- genotype distribution +/+ (%) (Mmachc^del3 mouse line [8]): 30%
- genotype distribution +/+ n (Mmachc^del3 mouse line [8]): 105
- genotype distribution +/− (%) (Mmachc^del3 mouse line [8]): 54%
- genotype distribution +/− n (Mmachc^del3 mouse line [8]): 192
- genotype distribution −/− (%) (Mmachc^del3 mouse line [8]): 16%
- genotype distribution −/− n (Mmachc^del3 mouse line [8]): 57
